From ChEMBL document CHEMBL2375210, “Caulerprenylols A and B, two rare antifungal prenylated para-xylenes from the green alga Caulerpa racemosa” (Bioorg Med Chem Lett, 2013)
Converted amounts (≈) assume the structure as drawn.

Assays:
HL-60 = assay: Cytotoxicity against human HL60 cells by MTT assay; assay type: cell-based
Nakaseomyces glabratus = assay: Antifungal activity against Candida glabrata ATCC 537 after 24 hrs to 1 week; assay type: functional
A549 = assay: Cytotoxicity against human A549 cells by MTT assay; assay type: cell-based
Aspergillus fumigatus = assay: Antifungal activity against Aspergillus fumigatus ATCC 07544 after 24 hrs to 1 week; assay type: functional
Cryptococcus neoformans = assay: Antifungal activity against Cryptococcus neoformans ATCC 32609 after 24 hrs to 1 week; assay type: functional
Trichophyton rubrum = assay: Antifungal activity against Trichophyton rubrum Cmccftla after 24 hrs to 1 week; assay type: functional

| SMILES | IC50 (HL-60) [µM] | MIC80 (Nakaseomyces glabratus) [µg/mL] | IC50 (A549) [µM] | MIC80 (Aspergillus fumigatus) [µg/mL] | MIC80 (Cryptococcus neoformans) [µg/mL] | MIC80 (Trichophyton rubrum) [µg/mL] |
| --- | --- | --- | --- | --- | --- | --- |
| COc1cccc2c1C(=O)c1c(O)c3c(c(O)c1C2=O)C[C@@](O)(C(=O)CO)C[C@@H]3O[C@H]1C[C@H](N)[C@H](O)[C@H](C)O1 [DOXORUBICIN] | 0.12 |  |  |  |  |  |
| CC(C)=C[C@H]1c2c(C)ccc(C)c2[C@@H](O)[C@@H]1C(C)(C)O (relative stereo) | ≥ 100 | 4 (≈ 14.6 µM) | ≥ 100 | ≥ 64 | 4 (≈ 14.6 µM) | 16 (≈ 58.3 µM) |
| C[C@@H]1[C@H](O)[C@@H](C)/C=C/C=C/C=C/C=C/C=C/C=C/C=C/[C@H](O[C@@H]2O[C@H](C)[C@@H](O)[C@H](N)[C@@H]2O)C[C@@H]2O[C@](O)(C[C@@H](O)C[C@@H](O)[C@H](O)CC[C@@H](O)C[C@@H](O)CC(=O)O[C@H]1C)C[C@H](O)[C@H]2C(=O)O [AMPHOTERICIN B] |  | 2 (≈ 2.16 µM) |  |  | 4 (≈ 4.33 µM) | 1 (≈ 1.08 µM) |
| Cc1ccc(C)c(/C=C/C(C)(C)O)c1/C=C/C(C)(C)O | ≥ 100 | 64 (≈ 233 µM) | ≥ 100 | ≥ 64 | 64 (≈ 233 µM) | 64 (≈ 233 µM) |
